Test results from US9718773B2, “Substituted 5 membered heterocyclic compounds and preparation thereof” (Council of Scientific and Industrial Research, priority 2014, dated 2017).

Test system: Mycobacterium smegmatis MC^2155 strain
Test: Anti-mycobacterial growth inhibition assay (turbidometry, 96 well plate)
Assay type: cell-based
Conditions: Mycolicibacterium smegmatis, ATCC14468|MC^2155, 32 h
Protocol: Anti-Mycobacterial Activity Assay:
Anti-mycobacterial activity of the synthesized compounds was performed with Mycobacterium smegmatis MC^2155 strain by performing a growth inhibition assay by agar dilution followed turbidometry method. The assay was semi-throughput and conducted in a 96 well plate (sterile). Isolated single colonies of M. smegmatis MC^2 155 (ATCC 14468) grown on 7H10 agar plate were grown overnight in Middlebrook 7H9 medium (0.47% Middlebrook 7H9 broth base, 10% ADS, 0.2% glycerol, and 0.1% Tween-80) to mid exponential phase at 37° C. When the OD of this culture reached approximately 0.8, a secondary culture was inoculated in 5 ml Middlebrook 7H9 medium. The secondary culture was incubated overnight and allowed to grow at 37° C. to early log phase (OD600≈0.3). For the anti-mycobacterial assay, 98 μl of 1:1000-folds dilution of secondary culture was dispensed into 96-well microtiter plate per well along with 2 μl of test compound in triplicate. 240 μl of sterile water were added to each well of the peripheral rows of 96-well plate to minimize media evaporation during assay incubation. The final concentration of the test compound in each well was 30 μM. Bacterial growth was assessed after 32 hours of incubation by measuring turbidity at 600 nm OD600 values using TECAN Infinite 200 PRO™ (Tecan Instruments, Switzerland). Depending upon the percentage of growth, the percentage of inhibition was calculated at the standard concentration of 30 μM. Isoniazid and Rifampicin were included in every assay plate as positive controls of growth inhibition using stock solutions of INH (10 mg/mL, HiMedia) and Rifampicin (10 mg/mL, HiMedia) to achieve the final concentration of 16 μg/mL for INH and 2 μg/mL for Rifampicin. Additional controls, DMSO (solvent without compound) and medium without inoculums, were included in all the assay plates avoiding intra assay variability. The results were analyzed as the percentage of growth inhibition.

Row | SMILES | inhibition at 30 µM [%]
1 | CCOC(=O)C[C@@H]1[C@@H](C(NC(=O)OC(C)(C)C)c2ccccc2)CN(S(=O)(=O)c2ccc(C)cc2)[C@@H]1C(=O)OCC (stereo partly shown) [IA] | 13.5
2 | CCOC(=O)C[C@@H]1[C@@H](C(NC(=O)OC(C)(C)C)c2ccc(C(F)(F)F)cc2)CN(S(=O)(=O)c2ccc(C)cc2)[C@@H]1C(=O)OCC (stereo partly shown) [IC] | 0.493
3 | CCOC(=O)C[C@@H]1[C@@H](C(NC(=O)OC(C)(C)C)c2ccc3ccccc3c2)CN(S(=O)(=O)c2ccc(C)cc2)[C@@H]1C(=O)OCC (stereo partly shown) [IE] | 20.7
4 | CCOC(=O)C[C@@H]1[C@@H](C(NC(=O)OC(C)(C)C)c2ccc(Br)cc2)CN(S(=O)(=O)c2ccc(C)cc2)[C@@H]1C(=O)OCC (stereo partly shown) [IF] | 10.8
5 | CCOC(=O)C[C@@H]1[C@@H]([C@@H](NC(=O)OC(C)(C)C)c2ccc(F)cc2)CN(S(=O)(=O)c2ccc(C)cc2)[C@@H]1C(=O)OCC [IG, ethyl (2S,3R,4R)-4-((R)-((tert-butoxycarbonyl)amino)(4-fluorophenyl)methyl)-3-(2ethoxy-2-oxoethyl)-1-tosylpyrrolidine-2-carboxylate] | 18.2

Same assay, conditions: Mycolicibacterium smegmatis, ATCC14468|MC^2155; test compound 30 μM; bacterial growth after 32 hours by OD600; M. smegmatis MC^2 155 (ATCC 14468); read-out: % Inhibition

Row | SMILES | inhibition at 30 µM [%]
6 | CCOC(=O)C[C@H]1CN(C(=O)OC(C)C)N(C(=O)OC(C)C)[C@@H]1Cc1ccc(OC)cc1 [2e, Diisopropyl (3R,4S)-4-(2-ethoxy-2-oxoethyl)-3-(4-methoxybenzyl)pyrazolidine-1,2-dicarboxylate] | 14
7 | CCOC(=O)C[C@H]1CN(C(=O)OC(C)C)N(C(=O)OC(C)C)[C@@H]1Cc1ccc(SC)cc1 [2g, Diisopropyl (3R,4S)-4-(2-ethoxy-2-oxoethyl)-3-(4-(methylthio)benzyl)pyrazolidine-1,2-dicarboxylate] | 24.9
8 | CCOC(=O)C[C@H]1CN(C(=O)OC(C)C)N(C(=O)OC(C)C)[C@@H]1Cc1cc2c(cc1[N+](=O)[O-])OCO2 [2i, Diisopropyl(3R,4S)-4-(2-ethoxy-2-oxoethyl)-3-((6-nitrobenzo[d][1,3]dioxol-5-yl)methyl)pyrazolidine-1,2-dicarboxylate] | 29.3

Test system: not given
Test: not given
Conditions: not given

Row | SMILES | melting point [°C]
9 | CCOC(=O)C[C@@H]1[C@@H](C(NC(=O)OC(C)(C)C)c2ccccc2)CN(S(=O)(=O)c2ccc(C)cc2)[C@@H]1C(=O)OCC (stereo partly shown) | 150 to 151
10 | CCOC(=O)C[C@@H]1[C@@H](C(NC(=O)OC(C)(C)C)c2ccc(Cl)cc2)CN(S(=O)(=O)c2ccc(C)cc2)[C@@H]1C(=O)OCC (stereo partly shown) | 155 to 156
11 | CCOC(=O)C[C@@H]1[C@@H](C(NC(=O)OC(C)(C)C)c2ccc(C(F)(F)F)cc2)CN(S(=O)(=O)c2ccc(C)cc2)[C@@H]1C(=O)OCC (stereo partly shown) | 169 to 170
12 | CCOC(=O)C[C@@H]1[C@@H](C(NC(=O)OC(C)(C)C)c2ccc(C)cc2)CN(S(=O)(=O)c2ccc(C)cc2)[C@@H]1C(=O)OCC (stereo partly shown) | 177 to 178
13 | CCOC(=O)C[C@@H]1[C@@H](C(NC(=O)OC(C)(C)C)c2ccc3ccccc3c2)CN(S(=O)(=O)c2ccc(C)cc2)[C@@H]1C(=O)OCC (stereo partly shown) | 160 to 161
14 | CCOC(=O)C[C@@H]1[C@@H](C(NC(=O)OC(C)(C)C)c2ccc(Br)cc2)CN(S(=O)(=O)c2ccc(C)cc2)[C@@H]1C(=O)OCC (stereo partly shown) | 161 to 163
15 | CCOC(=O)C[C@@H]1[C@@H](C(NC(=O)OC(C)(C)C)c2ccc(F)cc2)CN(S(=O)(=O)c2ccc(C)cc2)[C@@H]1C(=O)OCC (stereo partly shown) | 148 to 150
16 | Cc1ccc(S(=O)(=O)N2C[C@H]3[C@@H](C2)OC(=O)N[C@H]3c2ccc(F)cc2)cc1 | 207 to 211
17 | Cc1ccc(S(=O)(=O)N2C[C@H]([C@@H](NC(=O)OC(C)(C)C)c3ccco3)[C@H](O)C2)cc1 | 136 to 139
18 | Cc1ccc(S(=O)(=O)N2C[C@H]([C@@H](NC(=O)OC(C)(C)C)c3ccccc3)[C@H](O)C2)cc1 [Ia, tert-butyl ((R)-((3R,4S)-4-hydroxy-1-tosylpyrrolidin-3-yl)(phenyl)methyl)carbamate] | 197 to 200
19 | Cc1ccc(S(=O)(=O)N2C[C@H]([C@@H](NC(=O)OC(C)(C)C)c3ccc(Cl)cc3)[C@H](O)C2)cc1 [Ib, tert-butyl ((R)-(4-chlorophenyl)((3R,4S)-4-hydroxy-1-tosylpyrrolidin-3-yl)methyl)carbamate] | 203 to 205
20 | Cc1ccc(S(=O)(=O)N2C[C@H]([C@@H](NC(=O)OC(C)(C)C)c3ccc(C(F)(F)F)cc3)[C@H](O)C2)cc1 [Ic, tert-butyl ((R)-((3R,4S)-4-hydroxy-1-tosylpyrrolidin-3-yl)(4-(trifluoromethyl)phenyl)methyl)carbamate] | 202 to 204
21 | Cc1ccc([C@H](NC(=O)OC(C)(C)C)[C@H]2CN(S(=O)(=O)c3ccc(C)cc3)C[C@H]2O)cc1 [Id, tert-butyl ((R)-((3R,4S)-4-hydroxy-1-tosylpyrrolidin-3-yl)(p-tolyl)methyl)carbamate] | 187 to 190
22 | Cc1ccc(S(=O)(=O)N2C[C@H]3[C@@H](C2)OC(=O)N[C@H]3c2ccc3ccccc3c2)cc1 [Ie, (4R,4aR,7aS)-4-(naphthalen-2-yl)-6-tosylhexahydropyrrolo[3,4-e][1,3]oxazin-2(3H)-one] | 153 to 156
23 | Cc1ccc(S(=O)(=O)N2C[C@H]3[C@@H](C2)OC(=O)N[C@H]3c2ccc(Br)cc2)cc1 [If, (4R, 4aR, 7aS)-4-(4-Bromophenyl)-6-tosylhexahydropyrrolo [3,4-e][1,3]oxazin-2(3H)-one] | 210 to 213
24 | CSc1ccc([C@H](NC(=O)OC(C)(C)C)[C@H]2CN(S(=O)(=O)c3ccc(C)cc3)C[C@H]2O)cc1 [Ii, tert-Butyl ((R)-((3R, 4S)-4-hydroxy-1-tosylpyrrolidin-3-yl)(4-(methylthio)phenyl)methyl)carbamate] | 209 to 211
25 | Cc1ccc(S(=O)(=O)N2C[C@H]([C@@H](NC(=O)OC(C)(C)C)c3cccs3)[C@H](O)C2)cc1 [Ij, tert-Butyl ((R)-((3R, 4S)-4-hydroxy-1-tosylpyrrolidin-3-yl)(thiophen-2-yl)methyl) carbamate] | 186 to 189
